In patent US9758485B2, “Compounds for controlling arthropods” (priority 2013, dated 2017):

Key:
Ctenocephalides felis [1] = test: Ctenocephalides felis - in vitro contact tests with adult cat fleas; type: in vivo; settings: application rate 5 μg/cm^2 (=500 g/ha), after 48 h (dead or moribund)
Outline: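 Acetone solution coated on test-tube inner walls (900 ppm gives 5 μg/cm^2). After drying, 5-10 adult cat fleas added and kept horizontal at room temperature and ambient humidity. At 48 h fleas knocked down; motionless or uncoordinated ones counted dead/moribund, giving % efficacy.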

[2] = system: Boophilus microplus Parkhurst strain, SP-resistant; test: Boophilus microplus - dip test; type: in vivo; settings: application rate 100 ppm; dip of engorged adult female ticks; laying of fertile eggs, after 7 days
Outline: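 Adult engorged females of SP-resistant Parkhurst strain (8–10 per tube) fully immersed in compound diluted in water from a DMSO solution. Ticks then kept on filter discs in a climate-controlled room; efficacy scored from fertile egg laying at 7 days, with unclear eggs held about 42 days until hatch (100% = no fertile eggs).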

Boophilus microplus = Boophilus microplus - injection test; type: in vivo; settings: application rate 20 μg/animal; injected into engorged adult female ticks; laying of fertile eggs, after 7 days
Outline: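 Engorged adult female ticks, five per dose, were injected in the abdomen with 1 μl of active ingredient diluted in dimethyl sulphoxide. Animals were kept in dishes under climate control, and egg fertility was assessed after 7 days.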

Ctenocephalides felis [3] = test: Ctenocephalides felis - oral test; type: in vivo; settings: application rate 100 ppm in citrated cattle blood; adult fleas; kill after 2 days
Outline: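 Oral exposure of unfed adult fleas, roughly 20 per chamber, to compound-spiked citrated cattle blood taken up across a parafilm membrane. Read-out is percent kill at 2 days, where 100% means every flea dead.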

Lucilia cuprina = Lucilia cuprina test; type: in vivo; settings: application rate 100 ppm; L1 larvae in minced horsemeat; kill after 2 days
Outline: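 About 20 L1 larvae placed on minced horsemeat treated with compound, formulated in DMSO and diluted with water to test concentration. Kill in % scored after 2 days (100% = all larvae dead, 0% = none).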

Amblyomma hebraeum = Amblyomma hebraeum test (tick nymphs, immersion); type: in vivo; settings: application rate 100 ppm; tick nymphs immersed for one minute; kill after 42 days
Procedure: Solvent: dimethyl sulphoxide
To produce an appropriate active ingredient formulation, 10 mg of active ingredient are mixed with 0.5 ml of dimethyl sulphoxide, and the concentrate is diluted with water to the desired concentration.
Tick nymphs (Amblyomma hebraeum) are placed into perforated plastic beakers and immersed in the desired concentration for one minute. The ticks are transferred on filter paper into a Petri dish and stored in a climate-controlled cabinet.
After 42 days, the kill in % is determined. 100% means that all of the ticks have been killed; 0% means that none of the ticks have been killed.

[4] = logP determination by HPLC on a reversed-phase column (C18), EEC Directive 79/831 Annex V.A8; type: physicochemical; settings: for logP^a): HPLC-MS method a), Table I-T3; for log P: HPLC-MS, reversed-phase column (C18)
Musca domestica = Musca domestica test; type: in vivo; settings: application rate 100 ppm; adult houseflies; kill after 2 days
Outline: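 Feeding exposure: adult Musca domestica, 10 per vessel, given a sponge with sugar solution and test formulation at the desired concentration; % mortality determined on day 2.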

Rhipicephalus sanguineus = Rhipicephalus sanguineus - in vitro contact tests with adult brown dog ticks; type: in vivo
Procedure: Rhipicephalus sanguineus—In Vitro Contact Tests with Adult Brown Dog Ticks
For the coating of the test tubes, 9 mg of active ingredient are first dissolved in 1 ml of acetone p.a. and then diluted to the desired concentration with acetone p.a. 250 μl of the solution are distributed homogeneously on the inner walls and base of a 25 ml test tube by turning and rocking on an orbital shaker (rocking rotation at 30 rpm for 2 h). With 900 ppm active ingredient solution and internal surface 44.7 cm^2, given homogeneous distribution, an area-based dose of 5 μg/cm^2 is achieved.
After the solvent has evaporated off, the tubes are populated with 5-10 adult dog ticks (Rhipicephalus sanguineus), sealed with a perforated plastic lid and incubated in a horizontal position in the dark at room temperature and ambient humidity. After 48 h, efficacy is determined. To this end, the ticks are knocked to the floor of the tube and incubated on a hotplate at 45-50° C. for not more than 5 min. Ticks which remain motionless on the floor or move in such an uncoordinated manner that they are unable to deliberately avoid the heat by climbing upwards are considered to be dead or moribund.
An efficacy of 100% means that all the ticks were dead or moribund. 0% efficacy means that none of the ticks had been harmed.

[5] = application rate 5 μg/cm^2, after 48 h (dead or moribund)

logP ([4]; HPLC, reversed-phase C18, acetonitrile/water with formic acid, 55° C.) | SMILES | efficacy (Ctenocephalides felis [1]) | efficacy [2] | efficacy (Boophilus microplus) | efficacy (Ctenocephalides felis [3]) | efficacy (Lucilia cuprina) | efficacy (Amblyomma hebraeum) | logP^a) [4] | efficacy (Musca domestica) | efficacy (Rhipicephalus sanguineus; [5]) | log P [4] | efficacy (Rhipicephalus sanguineus; application rate 1 μg/cm^2, after 48 h (dead or moribund))
 | Cc1cc(C(F)(C(F)(F)F)C(F)(F)F)cc(C)c1-n1cc(-c2cnc(Cl)c(C(=O)NC3CC3)c2)cn1 [I-T3-20] | 100% | 100% | 100% | 100% | 100% | 100% | 3.8 | 100% | 100% |  | 
 | Cc1cc(C(F)(C(F)(F)F)C(F)(F)F)cc(C)c1-n1cc(-c2ccc(Cl)c(C(=O)NC3(C#N)CC3)c2)cn1 [I-T3-3] | 100% | 100% | 100% | 100% | 100% | 100% | 4.2 | 100% | 100% |  | 
 | O=C(NC1CC1)c1cc(-c2cnn(-c3c(Br)cc(C(F)(C(F)(F)F)C(F)(F)F)cc3C(F)(F)F)c2)ccc1Cl [I-T3-148] | 100% | 100% | 100% | 100% | 100% | 100% |  | 100% | 100% | 4.5 | 
 | Cc1cc(C(F)(C(F)(F)F)C(F)(F)F)cc(C(F)(F)F)c1-n1cc(-c2cnc(C)c(C(=O)NC3(C#N)CC3)c2)cn1 [I-T3-119] | 100% | 100% | 100% | 100% | 100% | 100% |  | 100% | 100% | 3.6 | 
 | N#CC1(NC(=O)c2cc(-c3cnn(-c4c(Cl)cc(C(F)(C(F)(F)F)C(F)(F)F)cc4Cl)c3)cnc2Cl)CC1 [I-T3-43] | 100% | 100% | 100% | 100% | 100% | 100% | 3.8 | 100% | 80% |  | 
 | CCc1cc(C(F)(C(F)(F)F)C(F)(F)F)cc(Cl)c1-n1cc(-c2ccc(Cl)c(C(=O)NC3(C#N)CC3)c2)cn1 [I-T3-71] | 100% | 100% | 100% | 100% | 100% | 100% | 4.5 | 100% | 100% |  | 
 | N#CC1(NC(=O)c2cc(-c3cnn(-c4c(Cl)cc(C(F)(C(F)(F)F)C(F)(F)F)cc4OC(F)(F)F)c3)ccc2Cl)CC1 [I-T3-163] | 100% | 100% | 100% | 100% | 100% | 100% |  | 100% | 100% | 4.5 | 
 | CCc1cc(C(F)(C(F)(F)F)C(F)(F)F)cc(C)c1-n1cc(-c2cnc(Cl)c(C(=O)NC3(C#N)CC3)c2)cn1 [I-T3-110] | 100% | 100% | 100% | 100% | 100% | 100% |  | 100% | 100% | 4.1 | 
 | CCc1cc(C(F)(C(F)(F)F)C(F)(F)F)cc(Cl)c1-n1cc(-c2ccc(Cl)c(C(=O)NC3CC3)c2)cn1 [I-T3-72] | 100% | 100% | 100% | 100% | 100% | 100% | 4.6 | 100% | 100% |  | 
 | O=C(NC1CC1)c1cc(-c2cnn(-c3c(F)cc(C(F)(C(F)(F)F)C(F)(F)F)cc3F)c2)ccc1Cl [I-T3-61] | 100% | 100% | 100% | 100% | 100% | 80% | 4.0 | 100% | 100% |  | 
 | Cc1cc(C(F)(C(F)(F)F)C(F)(F)F)cc(C(F)(F)F)c1-n1cc(-c2cnc(Cl)c(C(=O)NC3(C#N)CC3)c2)cn1 [I-T3-108] | 100% | 100% | 100% | 100% | 100% | 100% |  | 100% |  | 4.0 | 100%
 | O=C(NC1CC1)c1cc(-c2cnn(-c3c(Cl)cc(C(F)(C(F)(F)F)C(F)(F)F)cc3C(F)(F)F)c2)ccc1Cl [I-T3-56] | 100% | 100% | 100% | 100% | 100% | 100% | 4.4 | 100% | 100% |  | 
 | Cc1cc(C(F)(C(F)(F)F)C(F)(F)F)cc(C)c1-n1cc(-c2cnc(C)c(C(=O)NC3(C#N)CC3)c2)cn1 [I-T3-97] | 100% | 100% | 100% | 100% | 100% | 100% |  | 100% | 100% | 3.4 | 
 | Cc1cc(C(F)(C(F)(F)F)C(F)(F)F)cc(Cl)c1-n1cc(-c2ccc(Cl)c(C(=O)NC3CC3)c2)cn1 [I-T3-63] | 100% | 100% | 100% | 100% | 100% | 100% | 4.4 | 100% | 100% |  | 
4.6 | Cc1cc(C(F)(C(F)(F)F)C(F)(F)F)cc(C)c1-c1cc(-c2ccc(Cl)c(C(=O)NC3(C#N)CC3)c2)on1 [I-T22-2] | 100% | 100% | 100% | 100% | 100% | 100% |  | 100% | 100% |  | 
 | Cc1cc(C(F)(C(F)(F)F)C(F)(F)F)cc(C(F)(F)F)c1-n1cc(-c2ccc(Cl)c(C(=O)NC3(C#N)CC3)c2)cn1 [I-T3-55] | 100% | 100% | 100% | 100% | 100% | 100% | 4.3 | 100% | 100% |  | 
 | O=C(NC1CC1)c1cc(-c2cnn(-c3c(Cl)cc(C(F)(C(F)(F)F)C(F)(F)F)cc3Cl)c2)cnc1Cl [I-T3-42] | 100% | 100% | 100% | 100% | 100% | 100% | 3.8 | 100% | 100% |  | 
 | Cc1cc(C(F)(C(F)(F)F)C(F)(F)F)cc(C(F)(F)F)c1-n1cc(-c2cnc(Cl)c(C(=O)NC3CC3)c2)cn1 [I-T3-106] | 100% | 100% | 100% | 100% | 100% | 100% |  | 100% | 100% | 4.0 | 
